Assay results as given in patent US7223865B2, “Chromogenic compounds, and use thereof as enzyme substrates” (Biomerieux, priority 2003, dated 2007).
Blank lines part the entries; values can stand above or below the compound they belong to.

Legend:
Assay in all cases: L-alanine-aminopeptidase activity on gelled medium, Example 4
Type in all cases: cell-based
[1] = test system: Streptococcus agalactiae (001); settings: 0.3 g/l, after the addition of HCl
Experimental: (§1) A gelled medium comprising L-Ala-2-MeOAPA or L-Ala-2,5-diMeOAPA is prepared as follows: 46.37 g of Columbia agar are added to 1 liter of distilled water and then autoclaved. This reaction medium is separated into two media of equivalent volume. Each of these media comprises, respectively: 0.3 g/l of L-Ala-2-MeOAPA, introduced by means of a stock solution in DMSO, and 0.3 g/l of L-Ala-2,5-diMeOAPA, also introduced by means of a stock solution in DMSO. Microorganisms derived from the applicant's collection were seeded onto each of the media, by delimitation as three dials, using a suspension at 0.5 McFarland. […] The color of these colonies and also the intensity of this color were noted after the addition of HCl.

Candida albicans (077) = settings: 0.3 g/l, after the addition of HCl
Experimental: as §1

[2] = test system: Enterobacter cloacae (061); settings: 0.3 g/l, after the addition of HCl
Experimental: as §1

[3] = test system: Enterococcus faecalis (117); settings: for Color / Intensity: 0.3 g/l, after the addition of HCl
Experimental: as §1

[4] = test system: Staphylococcus aureus (035); settings: 0.3 g/l, after the addition of HCl
Experimental: as §1

Proteus mirabilis (037) = settings: 0.3 g/l, after the addition of HCl
Experimental: as §1

Listeria innocua (036) = settings: 0.3 g/l, after the addition of HCl
Experimental: as §1

[5] = test system: Klebsiella pneumoniae (023); settings: 0.3 g/l, after the addition of HCl
Experimental: as §1

Citrobacter koseri (012) = settings: 0.3 g/l, after the addition of HCl
Experimental: (§2) A gelled medium comprising L-Ala-2-MeOAPA or L-Ala-2,5-diMeOAPA is prepared as follows: 46.37 g of Columbia agar are added to 1 liter of distilled water and then autoclaved. This reaction medium is separated into two media of equivalent volume. Each of these media comprises, respectively: 0.3 g/l of L-Ala-2-MeOAPA, introduced by means of a stock solution in DMSO, and 0.3 g/l of L-Ala-2,5-diMeOAPA, also introduced by means of a stock solution in DMSO. Microorganisms derived from the applicant's collection were seeded onto each of the media, by delimitation as three dials, using a suspension at 0.5 McFarland. The dishes were incubated at 37° C. for 24 hours. The color of these colonies and also the intensity of this color were noted after the addition of HCl.

Escherichia coli (032) = settings: 0.3 g/l, after the addition of HCl
Experimental: as §2

Color ([1]; 24 H): colorless
Intensity ([1]; 24 H): 0
Color ([1]; 48 h): colorless
Intensity ([1]; 48 h): 0
Color ([2]; 24 H): Yellow-orange
Intensity ([2]; 24 H): 1.5
Color ([2]; 48 h): Yellow-orange
Intensity ([2]; 48 h): 2
Color ([3]; 24 H): Yellow-orange
Intensity ([3]; 24 H): 0.5
Color ([3]; 48 h): Yellow-orange
Intensity ([3]; 48 h): 3
L-alanine-aminopeptidase activity ([3]; after incubation for 48 hours): exhibits an activity
Color (Proteus mirabilis (037); 24 H): colorless
Intensity (Proteus mirabilis (037); 24 H): 0
Color (Proteus mirabilis (037); 48 h): orange
Intensity (Proteus mirabilis (037); 48 h): 0.5
Color (Listeria innocua (036); 24 H): colorless
Intensity (Listeria innocua (036); 24 H): 0
Color (Listeria innocua (036); 48 h): colorless
Intensity (Listeria innocua (036); 48 h): 0
Color ([5]; 24 H): orange
Intensity ([5]; 24 H): 1
Color ([5]; 48 h): Yellow-orange
Intensity ([5]; 48 h): 2.5
Color (Citrobacter koseri (012); 24 H): orange
Intensity (Citrobacter koseri (012); 24 H): 1
Color (Citrobacter koseri (012); 48 h): Yellow-orange
Intensity (Citrobacter koseri (012); 48 h): 2.5
Structure (SMILES): COc1cc(-c2c3ccccc3nc3ccccc23)c(OC)cc1NC(=O)[C@H](C)N [L-Ala-2,5-diMeOAPA, L-alanyl-2,5-dimethoxyaminophenylacridine]
Color (Candida albicans (077); 24 H): colorless
Intensity (Candida albicans (077); 24 H): 0
Color (Candida albicans (077); 48 h): colorless
Intensity (Candida albicans (077); 48 h): 0
Color ([4]; 24 H): colorless
Intensity ([4]; 24 H): 0
Color ([4]; 48 h): colorless
Intensity ([4]; 48 h): 0
Color (Escherichia coli (032); 24 H): Yellow-orange
Intensity (Escherichia coli (032); 24 H): 1.5
Color (Escherichia coli (032); 48 h): Yellow-orange
Intensity (Escherichia coli (032); 48 h): 2

Color ([1]; 24 H): inhibited
Color ([1]; 48 h): inhibited
Color ([2]; 24 H): pink
Intensity ([2]; 24 H): 2
Color ([2]; 48 h): pink
Intensity ([2]; 48 h): 2
Color ([3]; 24 H): inhibited
Color ([3]; 48 h): inhibited
Color (Proteus mirabilis (037); 24 H): orange
Intensity (Proteus mirabilis (037); 24 H): 1
Color (Proteus mirabilis (037); 48 h): orange
Intensity (Proteus mirabilis (037); 48 h): 1.5
Color (Listeria innocua (036); 24 H): colorless*
Intensity (Listeria innocua (036); 24 H): 0
Color (Listeria innocua (036); 48 h): colorless*
Intensity (Listeria innocua (036); 48 h): 0
Color ([5]; 24 H): pink
Intensity ([5]; 24 H): 3
Color ([5]; 48 h): pink
Intensity ([5]; 48 h): 3.5
Color (Citrobacter koseri (012); 24 H): orange
Intensity (Citrobacter koseri (012); 24 H): 2
Color (Citrobacter koseri (012); 48 h): pink
Intensity (Citrobacter koseri (012); 48 h): 3.5
Structure (SMILES): COc1cc(-c2c3ccccc3nc3ccccc23)ccc1NC(=O)[C@H](C)N [L-Ala-2-MeOAPA, L-alanyl-2-methoxy-aminophenylacridine]
Color (Candida albicans (077); 24 H): inhibited
Color (Candida albicans (077); 48 h): inhibited
Color ([4]; 24 H): colorless*
Intensity ([4]; 24 H): 0
Color ([4]; 48 h): colorless*
Intensity ([4]; 48 h): 0
Color (Escherichia coli (032); 24 H): orange
Intensity (Escherichia coli (032); 24 H): 0.5
Color (Escherichia coli (032); 48 h): pink
Intensity (Escherichia coli (032); 48 h): 3.5
